Reference: patent US5140014A (Abbott Laboratories, priority 1989, dated 1992)
Values after ≈ are worked out from the molar mass of the structure shown. Where two headings read alike, the source gives them in different places.

Key:
Assay in all cases: in vitro antibacterial activity, agar dilution method (MIC)
Format in all cases: cell-based
Streptococcus Bovis = conditions: Streptococcus equinus
Experimental: (§1) The test medium was Brain Heart Infusion (BHI) agar. The antibacterial agent was dissolved at a concentration of 2,000 ug/mL. Test plates were then prepared, usually 12 two-fold dilutions. After adding the sample to the plates, 10 mL of cooled BHI agar medium was added to each plate. The organisms were grown overnight in BHI broth (Difco) in a 35°-37° C. incubator.
(§2) On the day of testing, the bacterial suspensions were diluted 1:100 in sterile distilled water, except for a few slow-growing organisms (usually Micrococcus and Streptococcus) which were diluted 1:10. The plate was then inoculated with approximately 10^4 organisms. This was incubated in a 35°-37° C. incubator for 20-24 hours. Thereafter, the plates were read to determine the minimum inhibitory concentration (MIC) defined as the lowest concentration of drug yielding no growth on the plate, a slight haze, or sparsely isolated colonies on the inoculum spot as compared to the growth control.

Acinetobacter Sp = conditions: Acinetobacter, strain CMX 669; BHI agar, 20-24 hours; read-out: MIC
Experimental: as §1, §2

Providencia Stuartii = conditions: Providencia stuartii; strain CMX 640; BHI agar, 20-24 hours; read-out: MIC
Experimental: as §1, §2

Micrococcus Luteus = conditions: Micrococcus luteus, BHI agar, 20-24 hours, read-out: MIC
Experimental: as §1, §2

Klebsiella Pneumoniae = conditions: Klebsiella pneumoniae, ATCC8045, strain ATCC 8045; BHI agar, 20-24 hours; read-out: MIC
Experimental: as §1, §2

Pseudomonas Aeruginosa = conditions: Pseudomonas aeruginosa, BHI agar, 20-24 hours, read-out: MIC
Experimental: as §1, §2

Enterobacter Aerogenes = conditions: Klebsiella aerogenes, ATCC13048, strain ATCC 13048; BHI agar, 20-24 hours; read-out: MIC
Experimental: as §1, §2

Haemophilus Influenzae = conditions: Haemophilus influenzae, BHI agar, 20-24 hours
Experimental: as §1, §2

Streptococcus Agalactiae = conditions: Streptococcus agalactiae
Experimental: as §1, §2

Staphylococcus Aureus = conditions: Staphylococcus aureus, BHI agar, 20-24 hours, read-out: MIC
Experimental: as §1, §2

Streptococcus Pyogenes = conditions: Streptococcus pyogenes
Experimental: as §1, §2

Enterococcus Faecium = conditions: Enterococcus faecium, ATCC8043, strain ATCC 8043; BHI agar, 20-24 hours; read-out: MIC
Experimental: as §1, §2

[1] = system: Staphylococcus Epidermidis; conditions: Staphylococcus epidermidis, strain 3519; BHI agar, 20-24 hours; read-out: MIC
Experimental: as §1, §2

Escherichia Coli = conditions: Escherichia coli, BHI agar, 20-24 hours, read-out: MIC
Experimental: (§3) Compounds 1 to 8 were evaluated for antibacterial activity by the agar dilution method to determine the degree of in vitro susceptibility of aerobic microorganisms to antimicrobial agents. The test medium was Brain Heart Infusion (BHI) agar. The antibacterial agent was dissolved at a concentration of 2,000 ug/mL. Test plates were then prepared, usually 12 two-fold dilutions. After adding the sample to the plates, 10 mL of cooled BHI agar medium was added to each plate. The organisms were grown overnight in BHI broth (Difco) in a 35°-37° C. incubator.
as §2

Pseudomonas Cepacia = conditions: Burkholderia cepacia; strain 296I; BHI agar, 20-24 hours; read-out: MIC
Experimental: as §3, §2

[2] = ATCC9795, strain ATCC 9795, read-out: MIC
[3] = strain 930 CONST, BHI agar, 20-24 hours, read-out: MIC
[4] = strain 2548 INDUC, BHI agar, 20-24 hours, read-out: MIC

SMILES: CCC1OC(=O)CC(O)C(C)C(OC2OC(C)C(O)C(N(C)C)C2O)C(CC=O)CC(C)C(N(C)C)C=CC(C)=CC1COC(C)=O (stereo not shown) [Example 4, [9R]-23-O-Acetyl-9-deoxo-9-N,N-dimethylamino-5-O-mycaminosyl-tylonide]
- MIC (Streptococcus Bovis): ≤ 0.02 µg/mL
- MIC (Acinetobacter Sp): 6.2 µg/mL (≈ 9.27 µM)
- MIC (Providencia Stuartii): > 100 µg/mL
- MIC (Micrococcus Luteus; ATCC4698, strain ATCC 4698): 0.39 µg/mL (≈ 0.583 µM)
- MIC (Micrococcus Luteus; ATCC9341, strain ATCC 9341): 0.2 µg/mL (≈ 0.299 µM)
- MIC (Klebsiella Pneumoniae): 50 µg/mL (≈ 74.8 µM)
- MIC (Pseudomonas Aeruginosa; strain A5007): 100 µg/mL (≈ 150 µM)
- MIC (Pseudomonas Aeruginosa; strain BMH10): 100 µg/mL (≈ 150 µM)
- MIC (Pseudomonas Aeruginosa; strain K799/61): 3.1 µg/mL (≈ 4.63 µM)
- MIC (Pseudomonas Aeruginosa; strain K799/WT): 100 µg/mL (≈ 150 µM)
- MIC (Enterobacter Aerogenes): 100 µg/mL (≈ 150 µM)
- MIC (Haemophilus Influenzae; [2]): 1 µg/mL (≈ 1.5 µM)
- MIC (Haemophilus Influenzae; ATCC10211, strain ATCC 10211): 2 µg/mL (≈ 2.99 µM)
- MIC (Haemophilus Influenzae; ATCC19418, strain ATCC 19418): 2 µg/mL (≈ 2.99 µM)
- MIC (Haemophilus Influenzae; ATCC43095, strain ATCC 43095): 2 µg/mL (≈ 2.99 µM)
- MIC (Haemophilus Influenzae; strain 503B): 2 µg/mL (≈ 2.99 µM)
- MIC (Haemophilus Influenzae; strain 504, read-out: MIC): 0.25 µg/mL (≈ 0.374 µM)
- MIC (Haemophilus Influenzae; strain 519A, read-out: MIC): 1 µg/mL (≈ 1.5 µM)
- MIC (Haemophilus Influenzae; strain 566A, read-out: MIC): 1 µg/mL (≈ 1.5 µM)
- MIC (Haemophilus Influenzae; strain 588A): 2 µg/mL (≈ 2.99 µM)
- MIC (Haemophilus Influenzae; strain 747C): 2 µg/mL (≈ 2.99 µM)
- MIC (Haemophilus Influenzae; strain 751, read-out: MIC): 8 µg/mL (≈ 12 µM)
- MIC (Haemophilus Influenzae; strain 1177, read-out: MIC): 0.25 µg/mL (≈ 0.374 µM)
- MIC (Haemophilus Influenzae; strain 1435, read-out: MIC): 1 µg/mL (≈ 1.5 µM)
- MIC (Haemophilus Influenzae; strain DILL AMP R): 2 µg/mL (≈ 2.99 µM)
- MIC (Haemophilus Influenzae; strain SOL AMP R): 2 µg/mL (≈ 2.99 µM)
- MIC (Haemophilus Influenzae; strain SPK AMP R): 2 µg/mL (≈ 2.99 µM)
- MIC (Streptococcus Agalactiae; strain CMX 508, BHI agar, 20-24 hours, read-out: MIC): 0.1 µg/mL (≈ 0.15 µM)
- MIC (Staphylococcus Aureus; ATCC6538P, strain ATCC 6538P): 0.78 µg/mL (≈ 1.17 µM)
- MIC (Staphylococcus Aureus; NCTC10649, strain NCTC 10649): 0.78 µg/mL (≈ 1.17 µM)
- MIC (Staphylococcus Aureus; strain 45): 0.78 µg/mL (≈ 1.17 µM)
- MIC (Staphylococcus Aureus; strain 45 RAR2): 1.56 µg/mL (≈ 2.33 µM)
- MIC (Staphylococcus Aureus; strain 642A): 1.56 µg/mL (≈ 2.33 µM)
- MIC (Staphylococcus Aureus; strain A5177): 0.78 µg/mL (≈ 1.17 µM)
- MIC (Staphylococcus Aureus; strain CMX 553): 1.56 µg/mL (≈ 2.33 µM)
- MIC (Streptococcus Pyogenes; [3]): > 100 µg/mL
- MIC (Streptococcus Pyogenes; [4]): 0.78 µg/mL (≈ 1.17 µM)
- MIC (Streptococcus Pyogenes; strain EES61, BHI agar, 20-24 hours, read-out: MIC): 0.1 µg/mL (≈ 0.15 µM)
- MIC (Enterococcus Faecium): 0.39 µg/mL (≈ 0.583 µM)
- MIC [1]: 0.78 µg/mL (≈ 1.17 µM)
- MIC (Escherichia Coli; strain DC-2): 25 µg/mL (≈ 37.4 µM)
- MIC (Escherichia Coli; strain H560): 12.5 µg/mL (≈ 18.7 µM)
- MIC (Escherichia Coli; strain JUHL): 50 µg/mL (≈ 74.8 µM)
- MIC (Escherichia Coli; strain KNK 437): 50 µg/mL (≈ 74.8 µM)
- MIC (Escherichia Coli; strain SS): 0.78 µg/mL (≈ 1.17 µM)
- MIC (Pseudomonas Cepacia): > 100 µg/mL

SMILES: CCC1OC(=O)CC(O)C(C)C(OC2OC(C)CC(N(C)C)C2O)C(CC=O)CC(C)C(N(C)C)C=CC(C)=CC1COC(C)=O (stereo not shown) [Example 5, [9R]-23-O-Acetyl-9-deoxo-4'-deoxy-9-N,N-dimethylamino-5-O-mycaminosyl-tylonide]
- MIC (Streptococcus Bovis; strain A5169, BHI agar, 20-24 hours): 0.05 µg/mL (≈ 0.0766 µM)
- MIC (Acinetobacter Sp): 3.1 µg/mL (≈ 4.75 µM)
- MIC (Providencia Stuartii): > 100 µg/mL
- MIC (Micrococcus Luteus; ATCC4698, strain ATCC 4698): 0.1 µg/mL (≈ 0.153 µM)
- MIC (Micrococcus Luteus; ATCC9341, strain ATCC 9341): 0.1 µg/mL (≈ 0.153 µM)
- MIC (Klebsiella Pneumoniae): 25 µg/mL (≈ 38.3 µM)
- MIC (Pseudomonas Aeruginosa; strain A5007): > 100 µg/mL
- MIC (Pseudomonas Aeruginosa; strain BMH10): 100 µg/mL (≈ 153 µM)
- MIC (Pseudomonas Aeruginosa; strain K799/61): 1.56 µg/mL (≈ 2.39 µM)
- MIC (Pseudomonas Aeruginosa; strain K799/WT): > 100 µg/mL
- MIC (Enterobacter Aerogenes): 50 µg/mL (≈ 76.6 µM)
- MIC (Haemophilus Influenzae; [2]): 2 µg/mL (≈ 3.06 µM)
- MIC (Haemophilus Influenzae; ATCC10211, strain ATCC 10211, read-out: MIC): 2 µg/mL (≈ 3.06 µM)
- MIC (Haemophilus Influenzae; ATCC19418, strain ATCC 19418, read-out: MIC): 2 µg/mL (≈ 3.06 µM)
- MIC (Haemophilus Influenzae; ATCC43095, strain ATCC 43095, read-out: MIC): 2 µg/mL (≈ 3.06 µM)
- MIC (Haemophilus Influenzae; strain 503B, read-out: MIC): 2 µg/mL (≈ 3.06 µM)
- MIC (Haemophilus Influenzae; strain 504, read-out: MIC): 1 µg/mL (≈ 1.53 µM)
- MIC (Haemophilus Influenzae; strain 519A, read-out: MIC): 1 µg/mL (≈ 1.53 µM)
- MIC (Haemophilus Influenzae; strain 566A, read-out: MIC): 4 µg/mL (≈ 6.13 µM)
- MIC (Haemophilus Influenzae; strain 588A, read-out: MIC): 2 µg/mL (≈ 3.06 µM)
- MIC (Haemophilus Influenzae; strain 632A, read-out: MIC): 2 µg/mL (≈ 3.06 µM)
- MIC (Haemophilus Influenzae; strain 667A, read-out: MIC): 2 µg/mL (≈ 3.06 µM)
- MIC (Haemophilus Influenzae; strain 747C, read-out: MIC): 2 µg/mL (≈ 3.06 µM)
- MIC (Haemophilus Influenzae; strain 751, read-out: MIC): 4 µg/mL (≈ 6.13 µM)
- MIC (Haemophilus Influenzae; strain 1177, read-out: MIC): 0.12 µg/mL (≈ 0.184 µM)
- MIC (Haemophilus Influenzae; strain 1435, read-out: MIC): 1 µg/mL (≈ 1.53 µM)
- MIC (Haemophilus Influenzae; strain DILL AMP R, read-out: MIC): 2 µg/mL (≈ 3.06 µM)
- MIC (Haemophilus Influenzae; strain SOL AMP R, read-out: MIC): 2 µg/mL (≈ 3.06 µM)
- MIC (Haemophilus Influenzae; strain SPK AMP R, read-out: MIC): 2 µg/mL (≈ 3.06 µM)
- MIC (Streptococcus Agalactiae): 0.05 µg/mL (≈ 0.0766 µM)
- MIC (Staphylococcus Aureus; ATCC6538P, strain ATCC 6538P): 0.39 µg/mL (≈ 0.597 µM)
- MIC (Staphylococcus Aureus; NCTC10649, strain NCTC 10649): 0.39 µg/mL (≈ 0.597 µM)
- MIC (Staphylococcus Aureus; strain 45): 0.39 µg/mL (≈ 0.597 µM)
- MIC (Staphylococcus Aureus; strain 45 RAR2): 0.78 µg/mL (≈ 1.19 µM)
- MIC (Staphylococcus Aureus; strain 642A): 0.78 µg/mL (≈ 1.19 µM)
- MIC (Staphylococcus Aureus; strain A5177): 0.39 µg/mL (≈ 0.597 µM)
- MIC (Staphylococcus Aureus; strain CMX 553): 0.78 µg/mL (≈ 1.19 µM)
- MIC (Streptococcus Pyogenes): 0.05 µg/mL (≈ 0.0766 µM)
- MIC (Streptococcus Pyogenes; [3]): 50 µg/mL (≈ 76.6 µM)
- MIC (Streptococcus Pyogenes; [4]): 0.2 µg/mL (≈ 0.306 µM)
- MIC (Enterococcus Faecium): 0.1 µg/mL (≈ 0.153 µM)
- MIC [1]: 0.39 µg/mL (≈ 0.597 µM)
- MIC (Escherichia Coli; strain DC-2): 6.2 µg/mL (≈ 9.5 µM)
- MIC (Escherichia Coli; strain H560): 3.1 µg/mL (≈ 4.75 µM)
- MIC (Escherichia Coli; strain JUHL): 12.5 µg/mL (≈ 19.1 µM)
- MIC (Escherichia Coli; strain KNK 437): 12.5 µg/mL (≈ 19.1 µM)
- MIC (Escherichia Coli; strain SS): 0.2 µg/mL (≈ 0.306 µM)
- MIC (Pseudomonas Cepacia): > 100 µg/mL
